One assay relates to HepG2 cells. Put plainly: Effect of CGP37157 and KBR7943 on 4'I-MPP+-mediated mitochondrial membrane depolarization (TMRM). In kind it is cell-based, human. As to the method:
HepG2 cells grown in glass-bottomed plates for two days were treated with 50 μM CGP37157 or KBR7943 in KRB-HEPES for 30 min followed by 50 nM TMRM in KRB-HEPES for 45 min. Then plates were mounted on the stage of the microscope and mitochondrial membrane depolarization upon the treatment with 100 μM 4'I-MPP^+ was measured as a function of time as detailed above. The effect of CGP37157 on the 4'I-MPP^+ mediated mitochondrial membrane depolarization at longer time periods was monitored by observing the reduction of TMRM fluorescence from 0 to 4 h incubations in the presence or absence of CGP37157. HepG2 cells were incubated with or without 10 μM CGP37157 followed by 50 nM TMRM, and finally with 4'I-MPP^+ (100 μM, 0 or 4 h) and the intracellular TMRM fluorescence was recorded. Controls were carried out using an identical protocol except that either CGP37157 or 4'I-MPP^+ were omitted from the incubation media.

For a further assay, the system named is MN9D cells. Put plainly: Protection of MN9D cells from MPP+ and 4'I-MPP+ toxicities (MTT). It counts as cell-based, mouse. As to conditions: 0–50 μM CGP37157 30 min, then 80 μM MPP+ or 25 μM 4'I-MPP+ for 8 h. As to the method:
Cell viability was determined by the MTT [3-(4,5-dimethylthiazol-2-yl)-2,5-diphenyltetrazolium bromide)] assay. Briefly, cells were seeded on 96-well plates and allowed to grow to about 70–80% confluence. Prior to the experiment, culture media was replaced with KRB-HCO3^- containing desired concentrations of MPP^+ or 4'I-MPP^+ and incubated for 16 h at 37 °C. After the incubation, 10 μL of 5 mg/mL MTT solution was added to each well and incubated for 2 h at 37 °C. The resulting formazan was solubilized by the addition of 210 μL detergent solution [50% DMF/H2O (v/v), 20% SDS (w/v)] followed by incubation at 37 °C for 12 h. The cell viabilities were determined by quantifying solubilized formazan by measuring the difference in the absorbance at 570 nm and 650 nm. Results were expressed as % viability of MPP^+ or 4'I-MPP^+ treated cells with respect to control cells, which were treated under the same conditions except in the absence of the MPP^+ or 4'I-MPP^+.
Fig 7 CGP37157 protect MN9D cells from MPP^+ and 4'I-MPP^+ toxicities. Cells were pre-incubated with 0–50 μM CGP37157 for 30 min followed by 80 μM MPP^+ or 25 μM 4'I-MPP^+ for 8 h. The relative cell viabilities were determiner using MTT assay, as detailed above. Data are presented as mean ± SD (n = 6). ٭p<0.0001 and #p<0.005 versus no CGP37157 controls.

For assay [1], the system named is isolated intact MN9D mitochondria. Put plainly: Effects of Ca2+ and inhibitors on MN9D mitochondrial uptake of 4'I-MPP+. The arrangement: species or system mouse. The note with it: for 4'I-MPP+ uptake inhibition: 200 μM 4'I-MPP+. As to the method:
Intact MN9D cell mitochondria were incubated with 200 μM 4'I-MPP^+ for 45 min at 37 °C in 0, 500 or 1000 nM Ca^2+ containing KCl buffer. When mNCX inhibitors (KBR7943, 2APB and CGP37157) were used, mitochondrial suspensions were initially incubated with 10, 25 or 50 μM inhibitor in KCl buffer for 10 min at 37 °C and then with 200 μM 4'I- MPP^+ for 45 min at 37 °C. After the incubations, samples were centrifuged at 7,000 x g at 4 °C for 10 min and the mitochondrial pellets were treated with 75 μL of 0.1 M HClO4. […] To visualize the effect of CGP37157 on the mitochondrial uptake of 4'I-MPP^+ in live cells, HepG2 cells grown in glass-bottomed plates were incubated with 50 μM CGP37157 for 30 min initially and then with 100 μM 4'I-MPP^+ and 200 nM MitoTracker Green FM in KRB-HEPES for 1 h at 37 °C. After incubation cells were washed and reconstituted with KRB-HEPES, pH 7.4 and 4'I-MPP^+ and MitoTracker Green FM fluorescence images of cells were recorded as detailed above. Controls were treated under the same experimental conditions, except that CGP37157 was omitted from the initial incubation.
S4 Fig. Effects of Benzamil, Verapamil, FFA, and ruthenium red on the MN9D mitochondrial uptake of 4'I-MPP+. MN9D mitochondrial suspensions were initially incubated with a 50 μM concentration of the desired agent (10 μM Ruthenium red) in KCl buffer for 10 min at 37 °C and then incubated with 200 μM 4'I-MPP+ for 45 min at 37 °C. After the incubations, the […] 4'I-MPP+ contents were quantified by RP-HPLC-UV as described in Material and methods. The data are represented as mean ± S.D (n=3).
(also on this page, place not known: contol 10uM Ru red BenzamilVerapamil FFA 4I' MPP+ uptake (nmoles/mg) 0.0 0.1 0.2 0.3 0.4 0.5)
(1 picture or pasted object on this page, not shown here)

Regarding `O=C1CSC(c2ccccc2Cl)c2cc(Cl)ccc2N1` (stereo not drawn) [CGP37157], the “effect on 4'I-MPP+-induced mitochondrial membrane depolarization, longer incubation” value in the assay on HepG2 cells (10 μM CGP37157, 100 μM 4'I-MPP+, lasting at least 4 h) is “slows down”. For the same compound, the “effect on 4'I-MPP+ mitochondrial membrane depolarization” value in the assay on HepG2 cells (50 μM pre-treatment 30 min, 100 μM 4'I-MPP+) is given as “significantly reduced”. Further, the “protection from MPP+ and 4'I-MPP+ toxicities” value with MN9D cells was “effectively protects”. The results for the “4'I-MPP+ uptake inhibition” value in assay [1] (10 μM inhibitor) and in assay [1] (25 μM inhibitor) were “about 40%” and ~ 45%, respectively. Further, the “effect on uptake of 4'I-MPP+” value in assay [1] (50 μM inhibitor at 200 μM 4'I-MPP+) is reported as “inhibit the uptake”.

The values are drawn from publication PMC6107127, “Characteristics of the mitochondrial and cellular uptake of MPP^+, as probed by the fluorescent mimic, 4'I-MPP^+” (PLoS ONE, 2018).
